Assay results published in ChEMBL document CHEMBL4725265, “Short chain α-pyrones capable of potentiating penicillin G against Pseudomonas aeruginosa” (Bioorg Med Chem Lett, 2020).
Values after ≈ are worked out from the molar mass of the structure shown. Active and inactive are the calls of the source. No cut-off for these calls is given here.

What was measured:
Pseudomonas aeruginosa [1] = test: Antibacterial activity against Pseudomonas aeruginosa PAO1 assessed as growth inhibition by micro dilution assay; assay type: functional
Pseudomonas aeruginosa [2] = test: Antibacterial activity against Pseudomonas aeruginosa GKCW120 harboring P6 deletion mutant assessed as growth inhibition incubated for 8 hrs by micro dilution assay; assay type: functional
Pseudomonas aeruginosa [3] = test: Antibacterial activity against Pseudomonas aeruginosa GKCW120 harboring P6 deletion mutant assessed as growth inhibition incubated for 24 hrs by micro dilution assay; assay type: functional
Staphylococcus aureus [4] = test: Antibacterial activity against Staphylococcus aureus; assay type: functional, organism-based
Escherichia coli [5] = test: Antibacterial activity against Escherichia coli; assay type: functional, organism-based
Bacillus subtilis [6] = test: Antibacterial activity against Bacillus subtilis; assay type: functional, organism-based
Pseudomonas aeruginosa [7] = test: Antibacterial activity against Pseudomonas aeruginosa; assay type: functional, organism-based
Staphylococcus aureus [8] = test: Potentiation of amoxicillin-induced antibacterial activity against Staphylococcus aureus assessed as amoxicillin MIC at 50 uM after 12 to 24 hrs (reference value: 128 microg/ml); assay type: functional; conditions: time hrs 12-24
Staphylococcus aureus [9] = test: Potentiation of erythromycin-induced antibacterial activity against Staphylococcus aureus assessed as erythromycin MIC at 50 uM after 12 to 24 hrs (reference value: 0.5 microg/ml); assay type: functional; conditions: time hrs 12-24
Staphylococcus aureus [10] = test: Potentiation of penicillin G-induced antibacterial activity against Staphylococcus aureus assessed as penicillin G MIC at 50 uM after 12 to 24 hrs (reference value: […] microg/ml); assay type: functional; conditions: time hrs 12-24
Staphylococcus aureus [11] = test: Potentiation of vancomycin-induced antibacterial activity against Staphylococcus aureus assessed as vancomycin MIC at 50 uM after 12 to 24 hrs (reference value: 0.5 microg/ml); assay type: functional; conditions: time hrs 12-24
Staphylococcus aureus [12] = test: Potentiation of amoxicillin-induced antibacterial activity against Staphylococcus aureus assessed as fold reduction in amoxicillin MIC at 50 uM after 12 to 24 hrs relative to amoxicillin MIC alone; assay type: functional; conditions: time hrs 12-24
Staphylococcus aureus [13] = test: Potentiation of erythromycin-induced antibacterial activity against Staphylococcus aureus assessed as fold reduction in erythromycin MIC at 50 uM after 12 to 24 hrs relative to erythromycin MIC alone; assay type: functional; conditions: time hrs 12-24
Staphylococcus aureus [14] = test: Potentiation of penicillin G-induced antibacterial activity against Staphylococcus aureus assessed as fold reduction in penicillin G MIC at 50 uM after 12 to 24 hrs relative to penicillin G MIC alone; assay type: functional; conditions: time hrs 12-24
Staphylococcus aureus [15] = test: Potentiation of vancomycin-induced antibacterial activity against Staphylococcus aureus assessed as fold reduction in vancomycin MIC at 50 uM after 12 to 24 hrs relative to vancomycin MIC alone; assay type: functional; conditions: time hrs 12-24
Bacillus subtilis [16] = test: Potentiation of amoxicillin-induced antibacterial activity against Bacillus subtilis assessed as amoxicillin MIC at 50 uM after 12 to 24 hrs (reference value: 64 microg/ml); assay type: functional; conditions: time hrs 12-24
Bacillus subtilis [17] = test: Potentiation of erythromycin-induced antibacterial activity against Bacillus subtilis assessed as erythromycin MIC at 50 uM after 12 to 24 hrs (reference value: 0.5 microg/ml); assay type: functional; conditions: time hrs 12-24
Bacillus subtilis [18] = test: Potentiation of penicillin G-induced antibacterial activity against Bacillus subtilis assessed as penicillin G MIC at 50 uM after 12 to 24 hrs (reference value: 64 microg/ml); assay type: functional; conditions: time hrs 12-24
Bacillus subtilis [19] = test: Potentiation of vancomycin-induced antibacterial activity against Bacillus subtilis assessed as vancomycin MIC at 50 uM after 12 to 24 hrs (reference value: 64 microg/ml); assay type: functional; conditions: time hrs 12-24
Bacillus subtilis [20] = test: Potentiation of amoxicillin-induced antibacterial activity against Bacillus subtilis assessed as fold reduction in amoxicillin MIC at 50 uM after 12 to 24 hrs relative to amoxicillin MIC alone; assay type: functional; conditions: time hrs 12-24
Bacillus subtilis [21] = test: Potentiation of erythromycin-induced antibacterial activity against Bacillus subtilis assessed as fold reduction in erythromycin MIC at 50 uM after 12 to 24 hrs relative to erythromycin MIC alone; assay type: functional; conditions: time hrs 12-24
Bacillus subtilis [22] = test: Potentiation of penicillin G-induced antibacterial activity against Bacillus subtilis assessed as fold reduction in penicillin G MIC at 50 uM after 12 to 24 hrs relative to penicillin G MIC alone; assay type: functional; conditions: time hrs 12-24
Bacillus subtilis [23] = test: Potentiation of vancomycin-induced antibacterial activity against Bacillus subtilis assessed as fold reduction in vancomycin MIC at 50 uM after 12 to 24 hrs relative to vancomycin MIC alone; assay type: functional; conditions: time hrs 12-24
Escherichia coli [24] = test: Potentiation of amoxicillin-induced antibacterial activity against Escherichia coli assessed as amoxicillin MIC at 50 uM after 12 to 24 hrs (reference value: 4 microg/ml); assay type: functional; conditions: time hrs 12-24
Escherichia coli [25] = test: Potentiation of erythromycin-induced antibacterial activity against Escherichia coli assessed as erythromycin MIC at 50 uM after 12 to 24 hrs (reference value: 1 microg/ml); assay type: functional; conditions: time hrs 12-24
Escherichia coli [26] = test: Potentiation of penicillin G-induced antibacterial activity against Escherichia coli assessed as penicillin G MIC at 50 uM after 12 to 24 hrs (reference value: 64 microg/ml); assay type: functional; conditions: time hrs 12-24
Escherichia coli [27] = test: Potentiation of vancomycin-induced antibacterial activity against Escherichia coli assessed as vancomycin MIC at 50 uM after 12 to 24 hrs (reference value: 64 microg/ml); assay type: functional; conditions: time hrs 12-24
Escherichia coli [28] = test: Potentiation of amoxicillin-induced antibacterial activity against Escherichia coli assessed as fold reduction in amoxicillin MIC at 50 uM after 12 to 24 hrs relative to amoxicillin MIC alone; assay type: functional; conditions: time hrs 12-24
Escherichia coli [29] = test: Potentiation of erythromycin-induced antibacterial activity against Escherichia coli assessed as fold reduction in erythromycin MIC at 50 uM after 12 to 24 hrs relative to erythromycin MIC alone; assay type: functional; conditions: time hrs 12-24
Escherichia coli [30] = test: Potentiation of penicillin G-induced antibacterial activity against Escherichia coli assessed as fold reduction in penicillin G MIC at 50 uM after 12 to 24 hrs relative to penicillin G MIC alone; assay type: functional; conditions: time hrs 12-24
Escherichia coli [31] = test: Potentiation of vancomycin-induced antibacterial activity against Escherichia coli assessed as fold reduction in vancomycin MIC at 50 uM after 12 to 24 hrs relative to vancomycin MIC alone; assay type: functional; conditions: time hrs 12-24
Pseudomonas aeruginosa [32] = test: Potentiation of amoxicillin-induced antibacterial activity against Pseudomonas aeruginosa assessed as amoxicillin MIC at 50 uM after 12 to 24 hrs (reference value: 2 microg/ml); assay type: functional; conditions: time hrs 12-24
Pseudomonas aeruginosa [33] = test: Potentiation of erythromycin-induced antibacterial activity against Pseudomonas aeruginosa assessed as erythromycin MIC at 50 uM after 12 to 24 hrs (reference value: 0.5 microg/ml); assay type: functional; conditions: time hrs 12-24
Pseudomonas aeruginosa [34] = test: Potentiation of penicillin G-induced antibacterial activity against Pseudomonas aeruginosa assessed as penicillin G MIC at 50 uM after 12 to 24 hrs (Rvb > 128 microg/ml); assay type: functional; conditions: time hrs 12-24
Pseudomonas aeruginosa [35] = test: Potentiation of vancomycin-induced antibacterial activity against Pseudomonas aeruginosa assessed as vancomycin MIC at 50 uM after 12 to 24 hrs (reference value: 1 microg/ml); assay type: functional; conditions: time hrs 12-24
Pseudomonas aeruginosa [36] = test: Potentiation of amoxicillin-induced antibacterial activity against Pseudomonas aeruginosa assessed as fold reduction in amoxicillin MIC at 50 uM after 12 to 24 hrs relative to amoxicillin MIC alone; assay type: functional; conditions: time hrs 12-24
Pseudomonas aeruginosa [37] = test: Potentiation of erythromycin-induced antibacterial activity against Pseudomonas aeruginosa assessed as fold reduction in erythromycin MIC at 50 uM after 12 to 24 hrs relative to erythromycin MIC alone; assay type: functional; conditions: time hrs 12-24
Pseudomonas aeruginosa [38] = test: Potentiation of penicillin G-induced antibacterial activity against Pseudomonas aeruginosa assessed as fold reduction in penicillin G MIC at 50 uM after 12 to 24 hrs relative to penicillin G MIC alone; assay type: functional; conditions: time hrs 12-24
Pseudomonas aeruginosa [39] = test: Potentiation of vancomycin-induced antibacterial activity against Pseudomonas aeruginosa assessed as fold reduction in vancomycin MIC at 50 uM after 12 to 24 hrs relative to vancomycin MIC alone; assay type: functional; conditions: time hrs 12-24
Pseudomonas aeruginosa [40] = test: Antibacterial activity against Pseudomonas aeruginosa assessed as cell wall perturbation by XTT assay; assay type: functional, organism-based
Pseudomonas aeruginosa [41] = test: Antibiofilm activity against Pseudomonas aeruginosa by crystal violet staining based assay; assay type: functional, organism-based

## CC1(C)S[C@@H]2[C@H](NC(=O)Cc3ccccc3)C(=O)N2[C@H]1C(=O)O [PENICILLIN G]
Pseudomonas aeruginosa [1]
  MIC: > 128 µg/mL
Pseudomonas aeruginosa [2]
  MIC: 0.5 µg/mL (≈ 1.5 µM)
Pseudomonas aeruginosa [3]
  MIC: > 128 µg/mL

## CCCc1c(O)cc(CC)oc1=O
Staphylococcus aureus [4]
  IC50: > 100 µg/mL
  MIC: > 500 µM
Escherichia coli [5]
  IC50: > 100 µg/mL
  MIC: > 500 µM
Bacillus subtilis [6]
  IC50: > 100 µg/mL
  MIC: > 500 µM
Pseudomonas aeruginosa [7]
  IC50: > 1000 µg/mL
  MIC: > 5000 µM
Staphylococcus aureus [8]
  MIC: 128 µg/mL
Staphylococcus aureus [9]
  MIC: 0.5 µg/mL
Staphylococcus aureus [10]
  MIC: 64 µg/mL
Staphylococcus aureus [11]
  MIC: 0.5 µg/mL
Staphylococcus aureus [12]
  Ratio: 1
Staphylococcus aureus [13]
  Ratio: 1
Staphylococcus aureus [14]
  Ratio: 1
Staphylococcus aureus [15]
  Ratio: 1
Bacillus subtilis [16]
  MIC: 64 µg/mL
Bacillus subtilis [17]
  MIC: 0.5 µg/mL
Bacillus subtilis [18]
  MIC: 64 µg/mL
Bacillus subtilis [19]
  MIC: 64 µg/mL
Bacillus subtilis [20]
  Ratio: 1
Bacillus subtilis [21]
  Ratio: 1
Bacillus subtilis [22]
  Ratio: 1
Bacillus subtilis [23]
  Ratio: 1
Escherichia coli [24]
  MIC: 4 µg/mL
Escherichia coli [25]
  MIC: 1 µg/mL
Escherichia coli [26]
  MIC: 64 µg/mL
Escherichia coli [27]
  MIC: 64 µg/mL
Escherichia coli [28]
  Ratio: 1
Escherichia coli [29]
  Ratio: 1
Escherichia coli [30]
  Ratio: 1
Escherichia coli [31]
  Ratio: 1
Pseudomonas aeruginosa [32]
  MIC: 2 µg/mL
Pseudomonas aeruginosa [33]
  MIC: 0.5 µg/mL
Pseudomonas aeruginosa [34]
  MIC: 128 µg/mL
Pseudomonas aeruginosa [35]
  MIC: 1 µg/mL
Pseudomonas aeruginosa [36]
  Ratio: 1
Pseudomonas aeruginosa [37]
  Ratio: 1
Pseudomonas aeruginosa [38]
  Ratio: >1
Pseudomonas aeruginosa [39]
  Ratio: 1
Pseudomonas aeruginosa [40]
  Activity: inactive
Pseudomonas aeruginosa [41]
  Activity: inactive

## CCC(=O)c1c(O)cc(CC)oc1=O
Staphylococcus aureus [4]
  IC50: > 100 µg/mL
  MIC: > 500 µM
Escherichia coli [5]
  IC50: > 100 µg/mL
  MIC: > 500 µM
Bacillus subtilis [6]
  IC50: > 100 µg/mL
  MIC: > 500 µM
Pseudomonas aeruginosa [7]
  IC50: > 1000 µg/mL
  MIC: > 5000 µM
Staphylococcus aureus [8]
  MIC: 128 µg/mL
Staphylococcus aureus [9]
  MIC: 0.5 µg/mL
Staphylococcus aureus [10]
  MIC: 64 µg/mL
Staphylococcus aureus [11]
  MIC: 0.5 µg/mL
Staphylococcus aureus [12]
  Ratio: 1
Staphylococcus aureus [13]
  Ratio: 1
Staphylococcus aureus [14]
  Ratio: 1
Staphylococcus aureus [15]
  Ratio: 1
Bacillus subtilis [16]
  MIC: 64 µg/mL
Bacillus subtilis [17]
  MIC: 0.5 µg/mL
Bacillus subtilis [18]
  MIC: 64 µg/mL
Bacillus subtilis [19]
  MIC: 64 µg/mL
Bacillus subtilis [20]
  Ratio: 1
Bacillus subtilis [21]
  Ratio: 1
Bacillus subtilis [22]
  Ratio: 1
Bacillus subtilis [23]
  Ratio: 1
Escherichia coli [24]
  MIC: 4 µg/mL
Escherichia coli [25]
  MIC: 1 µg/mL
Escherichia coli [26]
  MIC: 64 µg/mL
Escherichia coli [27]
  MIC: 64 µg/mL
Escherichia coli [28]
  Ratio: 1
Escherichia coli [29]
  Ratio: 1
Escherichia coli [30]
  Ratio: 1
Escherichia coli [31]
  Ratio: 1
Pseudomonas aeruginosa [32]
  MIC: 2 µg/mL
Pseudomonas aeruginosa [33]
  MIC: 0.5 µg/mL
Pseudomonas aeruginosa [34]
  MIC: 0.5 µg/mL
Pseudomonas aeruginosa [35]
  MIC: 1 µg/mL
Pseudomonas aeruginosa [36]
  Ratio: 1
Pseudomonas aeruginosa [37]
  Ratio: 1
Pseudomonas aeruginosa [38]
  Ratio: >256
Pseudomonas aeruginosa [39]
  Ratio: 1
Pseudomonas aeruginosa [40]
  Activity: inactive
Pseudomonas aeruginosa [41]
  Activity: inactive
